According to patent US20140057908A1, “Method of Treating Cancer” (Exelixis, Inc., priority 2010, published 2014):

What was measured:
[1] = tested on: pancreatic neuroendocrine tumor; test: murine pancreatic neuroendocrine tumor model; settings: mouse, in vivo
[2] = gravimetric vapor sorption (GVS) study; type: physicochemical; settings: crystalline form; 25° C. and 90% humidity
Description: A gravimetric vapor sorption (GVS) study was run using a standard procedure. Samples were run on a dynamic vapor sorption analyzer (Surface Measurement Systems) running DVSCFR software. Sample sizes were typically 10 mg. A moisture adsorption desorption isotherm was performed as outlined below. The standard isotherm experiment, performed at 25° C., is a two-cycle run, starting at 40% RH, increasing humidity to 90% RH, decreasing humidity to 0% RH, increasing humidity again to 90% RH, and finally decreasing humidity to 0% RH in 10% RH intervals.

[3] = tested on: xenograft tumor models; test: xenograft tumor models; settings: in vivo
[4] = tested on: castration-resistant prostate cancer (CRPC) with bone metastases; test: adaptive phase 2 trial (NCT00940225), case studies of the first three CRPC patients with bone metastases; type: in vivo, human; settings: for Bone scan (best response) / PSA (best response) / tALP (best response) / Hemoglobin (best response): 100 mg dose; for Hemoglobin (best response): change from baseline; for PSA: Week 18
Text: All patients provided informed consent before study screening.

COc1cc2c(Oc3ccc(NC(=O)C4(C(=O)Nc5ccc(F)cc5)CC4)cc3F)ccnc2cc1OCCCN1CCOCC1 [Compound 2, N-[3-fluoro-4-({6-(methyloxy)-7-[(3-morpholin-4-ylpropyl)oxy]quinolin-4-yl}oxy)phenyl]-N′-(4-fluorophenyl)cyclopropane-1,1-dicarboxamide]
overall survival [1]: substantially improves overall survival
tumor invasiveness and metastasis [1]: significantly reduces tumor invasiveness and metastasis
weight gain (GVS) [2]: 2.5%
effect on tumors in xenograft tumor models [3]: causes tumor regression

COc1cc2nccc(Oc3ccc(NC(=O)C4(C(=O)Nc5ccc(F)cc5)CC4)cc3)c2cc1OC [Compound 1, N-(4-{[6,7-bis(methyloxy)quinolin-4-yl]oxy}phenyl)-N′-(4-fluorophenyl)cyclopropane-1,1-dicarboxamide]
overall survival [1]: substantially improves overall survival
tumor invasiveness and metastasis [1]: significantly reduces tumor invasiveness and metastasis
Bone scan (best response) ([4]; Patient 1): Complete
PSA (best response) ([4]; Patient 1): −78%
tALP (best response) ([4]; Patient 1): −77%
Hemoglobin (best response) ([4]; Patient 1): +1.4 g/dL
CT scan response ([4]; Patient 1, Week 6): partial response (PR)
decrease in measurable target lesions (CT scan) ([4]; Patient 1, Week 6): 33%
PSA ([4]; Patient 1, baseline 430 ng/mL): 93.5 ng/mL
PSA (best response) ([4]; Patient 2): +61%
tALP (best response) ([4]; Patient 2): −6%
Hemoglobin (best response) ([4]; Patient 2): +1.8 g/dL
decrease in target lesions (CT scan) ([4]; Patient 2, Week 6): 13%
Bone scan (best response) ([4]; Patient 3): Near resolution
PSA (best response) ([4]; Patient 3): −57%
tALP (best response) ([4]; Patient 3): −77%
Hemoglobin (best response) ([4]; Patient 3): +2.2 g/dL
decrease in measurable target lesions (CT scan) ([4]; Patient 3, Week 6): 43%
PSA ([4]; Patient 3, 2.4 ng/mL at screening): 1.2 ng/mL
bone lesions, summary of three metastatic CRPC patients ([4]; all three patients): near complete resolution of bone lesions
uptake of radiotracer on bone scan, summary ([4]; all three patients): striking decrease in uptake of radiotracer on bone scan
effect on tumors in xenograft tumor models [3]: causes tumor regression
